Earlier results in US7517900B2, “Pyrazole derivatives as cannabinoid receptor modulators” (Bristol-Myers Squibb Company, priority 2003, dated 2009).

Key:
[1] = chronic administration for two weeks
human subjects = settings: 16 week trial period, Phase IIb

| SMILES | body weight [1] | body weight in human subjects (human subjects) |
| --- | --- | --- |
| Cc1c(C(=O)NN2CCCCC2)nn(-c2ccc(Cl)cc2Cl)c1-c1ccc(I)cc1 [AM-251] | substantial body weight reduction | – |
| Cc1c(C(=O)NN2CCCCC2)nn(-c2ccc(Cl)cc2Cl)c1-c1ccc(Cl)cc1 [SR-141716] | – | dose-dependently reduced body weight |
